# According to patent US9867794B2, “Regulation of osteopontin” (Pathologica LLC, priority 2007, dated 2018):
# Several values for one entry are separate records, joined by “and”; a condition that tells them apart may be missing. Equal entries are not always repeated.
# Columns and labels:
# IL10 = experiment: Microarray analysis of mononuclear cells, IL10 probe; format: cell-based, human; conditions: presence of MGBG, all samples
# Protocol: Blood samples were obtained from HIV infected patients (N=9) with positive viral load and reduced CD4 counts, and non-HIV infected, healthy controls (N=6). Blood was collected into heparin anticoagulant tubes and mononuclear cells were isolated by Percoll gradient centrifugation. The cells from each sample were split into 2: one-half receives MGBG at concentration of 10 μM and the other half received no treatment. All samples were then cultured overnight in RPMI media with 10% fetal bovine serum at 37° C. under non-adherent conditions. The next day cells were collected by centrifugation, washed one time with PBS, and lysed by resuspension in TRIZOL, and total RNA was prepared according to manufacturer's instructions (Invitrogen, Carlsbad, Calif.). […] The RNA was then amplified for microarray analysis using a 2 cycle amplification protocol according to the manufacturer's instructions (Affymetrix, Santa Clara, Calif.). The amplified RNAs were then hybridized to Human Genome U133 plus 2.0 microarrays (Affymetrix) and expression data was obtained using an Affymetrix scanner and GCOS protocols. Microarray data was analyzed with GeneSpring Microarray Suite. Results were normalized using a set of 100 probe sets determined by the manufacturer to have relatively invariant expression across most cell types.
# SGNE3 = experiment: Quantitative RT-PCR, unsorted mononuclear cells, SGNE3; format: cell-based, human
# Protocol: (§1) To evaluate the effect of MGBG on gene expression, blood samples were obtained from patients (N=18, 10 HIV-infected and 8 Healthy Controls). Mononuclear cells were isolated via Percoll gradient centrifugation. The cells were split into two tubes, one treated with 10 μM of MGBG and the other non-treated. The cells were then cultured overnight in RPMI media plus 10% fetal bovine serum at 37 C under non-adherent conditions, collected, lysed using Trizol solution, and total RNA prepared according to manufacturer's instructions (Invitrogen, Carlsbad, Calif.).
# (§2) Approximately 200 ng of total RNA prepared from each sample was converted to cDNA using the First Strand cDNA Synthesis Kit for RT-PCR [AMV] kit (Roche Applied Diagnostics, Indianapolis, Ind.) according to manufacturer's instructions. Around 5 ng of cDNA sample was then used for PCR performed on a LightCycler (Roche Applied Diagnostics, Indianapolis, Ind.) using the LightCycler FastStart DNA Master SYBR Green I kit. PCR conditions are as follows: 1 cycle of denaturation at 95° C. for 10 minutes, followed by 45 cycles of 95° C. for 10 seconds, 68° C. for 10 seconds, and 72° C. for 16 seconds.
# (§3) The sequences of gene-specific primers evaluated are listed below. All samples were also amplified with the human β-actin LightCycler-Primer set (Roche Diagnostics).
# IL24 = experiment: Quantitative RT-PCR, unsorted mononuclear cells, IL24; format: cell-based, human
# Protocol: as §1, §2, §3
# MX2 = experiment: Quantitative RT-PCR, unsorted mononuclear cells, MX2; format: cell-based, human
# Protocol: as §1, §2, §3
# adenosine deaminase = experiment: QRT-PCR in CD14/CD16-separated cell fractions, adenosine deaminase RNA; format: cell-based, human; conditions: 10 μM MGBG
# Protocol: (§4) The changes induced by MGBG in different blood cell types were determined for osteopontin and adenosine deaminase and 7 other genes. For this experiment, blood samples were obtained from 6 healthy controls (3 men/3 women from 20 to 55 years of age) and mononuclear cells were isolated via Percoll gradient centrifugation. The cells were then incubated for 3 hours in RPMI media plus 10% fetal bovine serum at 37 C. At that point MGBG was added to 10 μM to half of each sample and then the cells were incubated at 37 C for 20 more hours. The cells were then bound to magnetic beads coated with antibodies to human CD16. Bound cells (CD16 expressing) were separated from unbound cells using an AutoMACs according to manufacturer's instructions (Miltenyi, Auburn Calif.). Then CD16+ cells are released from the magnetic beads and both the CD16+ and CD16− cells are combined with magnetic beads coated with antibodies to human CD14. Antibody bound and unbound cells were then separated using the AutoMACs machine. […] Cells that neither express CD16 nor CD14 (the −/− Cells). This is mostly T lymphocytes; 2. Cells that only express CD16. This includes contaminating granulocytes not removed by Percoll centrifugation and CD16+ monocytes with very low CD14 expression; 3. Cells that express both CD16 and CD14. This includes monocytes that are expressing CD16+ and macrophages (which express high levels of both); and 4. Cells that only express CD14. This would include most normal human monocytes. After separation, cells of each fraction are washed with PBS and the number of viable cells determined by trypan blue exclusion. RNA is then prepared from each cell group using TRIZOL, according to manufacturer's instructions.
# TNFα = experiment: QRT-PCR in CD14/CD16-separated cell fractions, TNFα RNA; format: cell-based, human; conditions: monocytes, 10 μM MGBG, p=0.03
# Protocol: as §4, with “Cells that express both CD16 and CD14. This includes monocytes that are expressing CD16+ and macrophages (which express high levels of both); and 4. Cells that only express CD14. This would include most normal human monocytes.” left out, “RNA is then prepared from each cell group using TRIZOL, according to manufacturer's instructions.” left out
# [1] = tested on: CD14+ macrophages; CD16+/CD14− cells; experiment: Phenotypic analysis of cells targeted by MGBG; format: cell-based; conditions: increasing concentrations of MGBG
# Protocol: Additionally, cells being targeted by MGBG were investigated. […] To elucidate the effects of MGBG and OPN on cell motility, migration assays were conducted. MGBG at 10 μM inhibited macrophage Osteopontin production from >200 ng/mL to nondetectable levels while simultaneously inhibiting HeLa cell invasion into a Matrigel matrix.
# [2] = 10 μM MGBG overnight, untreated vs treated, negative = fold reduction, individual samples
# [3] = 10 μM MGBG, all unsorted samples
smiles,measurement,setting,value
"CC(/C=N/NC(=N)N)=N\NC(=N)N [MGBG, 1,1′ [methylethanediylidene]dinitrilodiguanidine]","average change in IL10 signal, upregulated",IL10,5.6 fold
same,Fold change SGNE3 by QRT-PCR,SGNE3; [2],1.58 fold and −3.25 fold and −1.30 fold and −2.39 fold and −2.43 fold and −1.48 fold and 1.61 fold and −3.61 fold and −1.66 fold and −1.13 fold and 1.79 fold and −7.11 fold and −2.50 fold and −4.41 fold
same,"Fold change SGNE3, AVERAGE",SGNE3; [3],−1.9 fold
same,"Fold change SGNE3, MAX",SGNE3; [3],1.8 fold
same,"Fold change SGNE3, MIN",SGNE3; [3],−7.1 fold
same,SGNE3 regulation by MGBG,SGNE3; level of inhibition in most samples is low,mostly down-regulated
same,SGNE3 % >2 fold Changed,"SGNE3; share of samples, 10 μM MGBG",50%
same,Fold change IL24 by QRT-PCR,IL24; [2],5.35 fold and 1.20 fold and 1.09 fold and −1.13 fold and 1.12 fold and 11.88 fold and 2.57 fold and 2.55 fold and 2.25 fold and 1.01 fold and −1.17 fold and 1.92 fold and 1.32 fold and 1.79 fold and 2.50 fold and −2.41 fold and −1.48 fold and −1.30 fold
same,"Fold change IL24, AVERAGE",IL24; [3],1.6 fold
same,"Fold change IL24, MAX",IL24; [3],11.9 fold
same,"Fold change IL24, MIN",IL24; [3],−2.4 fold
same,IL24 % >2 fold Changed,"IL24; share of samples, 10 μM MGBG",33%
same,IL24 regulation by MGBG,IL24; unsorted samples,did not exhibit a consistent pattern of change
same,Fold change MX2 by QRT-PCR,"MX2; 10 μM MGBG overnight, individual samples",2.03 fold and −1.09 fold and 1.16 fold (2×) and −1.01 fold and 4.35 fold and 1.56 fold and −2.81 fold and 3.07 fold and −1.33 fold and −1.77 fold and −3.27 fold and 1.36 fold and 1.13 fold and −2.11 fold and −2.85 fold and 1.23 fold and 6.06 fold
same,MX2 AVERAGE,"MX2; 10 μM MGBG, all samples",1.55 fold
same,MX2 MAX,"MX2; 10 μM MGBG, all samples",6.06 fold
same,MX2 MIN,"MX2; 10 μM MGBG, all samples",−3.27 fold
same,ADA transcription median change (increase),"adenosine deaminase; CD14+ monocytes, p=0.0156",10.8 fold
same,ADA transcription median change (increase),adenosine deaminase; CD14/CD16++ cells,2.8 fold
same,ADA transcription change,adenosine deaminase; Double negative cells and CD16+ cells,did not change significantly
same,TNFα RNA median signal relative to no MGBG,TNFα,0.32
same,levels of CD16+/CD14− cells,[1],did not affect
same,yields of CD14+ macrophages,[1],decreasing yields
